Reference: patent publication US10172820B2, “Skin preparation composition for external use having excellent antiseptic ability” (AMOREPACIFIC CORPORATION, priority 2011, dated 2019)

Assay: Skin irritation test (24 hour patch test)
Design: species or system human
Details: in vivo; for Average skin irritation score: human, 24 h
Procedure: The patch is applied to the upper part of the back of each panel, using 20 μL of the test ingredient on an IQ chamber (Chemotechique, […]). The patch is removed after 24 hours of application and a first evaluation is conducted in 30 more minutes. After 24 hours, a second evaluation is carried out. To determine the severity of the skin irritation of each specimen, a weighted grade is applied according to the severity of the positive reaction on the skin to calculate the average skin irritation score as given by the following Equation and determine the severity of the skin irritation from the specimen. […] Mild irritation Score≥5: Severe irritation

| Compound | Average skin irritation score (5 %) | Skin irritation, result in words | Average skin irritation score (4 %) | Average skin irritation score (1 %) |
| --- | --- | --- | --- | --- |
| CCCCCCCC(=O)OCC(O)CO (stereo not drawn) [Glyceryl caprylate, glyceryl caprylate] | 0.94 | almost no irritation | – | – |
| C=CCCCCCCCCC(=O)OCC(O)CO (stereo not drawn) [Glyceryl undecylenate, glyceryl undecylenate] | – | almost no irritation | 0.00 | – |
| COc1ccc(C(=O)O)cc1 [p-anisic acid] | – | almost no irritation | – | 0.94 |
